Assay results: PubChem BioAssay (NCI)
Values joined by “and” are separate entries in the source; they are usually repeats but may differ in a detail not shown here. Identical values can stand only once.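 Step 1: Grow cells in 96-well plates. Step 2: Expose to compound for 48 hours at 5 concentrations. Step 3: Interpolate endpoints linearly; if unreached, use highest concentration. The concentration for 50% growth inhibition is given as GI50. At the TGI there is no net growth.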

Columns and labels:
Experiment in all cases: NCI tumour cell line growth inhibition, 48 h
786-0 renal = test system: 786-0 renal
A498 renal = test system: A498 renal
A549 NSCLC = test system: A549 NSCLC
ACHN renal = test system: ACHN renal
CAKI-1 renal = test system: CAKI-1 renal
CCRF-CEM leukemia = test system: CCRF-CEM leukemia
COLO 205 colon = test system: COLO 205 colon
DLD-1 colon = test system: DLD-1 colon
DMS 114 small cell lung = test system: DMS 114 small cell lung
DMS 273 small cell lung = test system: DMS 273 small cell lung
EKVX NSCLC = test system: EKVX NSCLC
HCC-2998 colon = test system: HCC-2998 colon
HCT-116 colon = test system: HCT-116 colon
HCT-15 colon = test system: HCT-15 colon
HL-60(TB) leukemia = test system: HL-60(TB) leukemia
HOP-18 NSCLC = test system: HOP-18 NSCLC
HOP-62 NSCLC = test system: HOP-62 NSCLC
HOP-92 NSCLC = test system: HOP-92 NSCLC
HT29 colon = test system: HT29 colon
IGROV1 ovarian = test system: IGROV1 ovarian
K-562 leukemia = test system: K-562 leukemia
KM12 colon = test system: KM12 colon
KM20L2 colon = test system: KM20L2 colon
LOX IMVI melanoma = test system: LOX IMVI melanoma
LXFL 529 NSCLC = test system: LXFL 529 NSCLC
M14 melanoma = test system: M14 melanoma
MALME-3M melanoma = test system: MALME-3M melanoma
MOLT-4 leukemia = test system: MOLT-4 leukemia
NCI-H226 lung = test system: NCI-H226 lung
NCI-H23 lung = test system: NCI-H23 lung
NCI-H460 lung = test system: NCI-H460 lung
NCI-H522 lung = test system: NCI-H522 lung
OVCAR-3 ovarian = test system: OVCAR-3 ovarian
OVCAR-4 ovarian = test system: OVCAR-4 ovarian
OVCAR-5 ovarian = test system: OVCAR-5 ovarian
OVCAR-8 ovarian = test system: OVCAR-8 ovarian
RPMI-8226 leukemia = test system: RPMI-8226 leukemia
RXF 393 renal = test system: RXF 393 renal
RXF-631 renal = test system: RXF-631 renal
SF-268 CNS = test system: SF-268 CNS
SF-295 CNS = test system: SF-295 CNS
SF-539 CNS = test system: SF-539 CNS
SK-MEL-2 melanoma = test system: SK-MEL-2 melanoma
SK-MEL-28 melanoma = test system: SK-MEL-28 melanoma
SK-MEL-5 melanoma = test system: SK-MEL-5 melanoma
SK-OV-3 ovarian = test system: SK-OV-3 ovarian
SN12C renal = test system: SN12C renal
SNB-19 CNS = test system: SNB-19 CNS
SNB-75 CNS = test system: SNB-75 CNS
SNB-78 CNS = test system: SNB-78 CNS
SR leukemia = test system: SR leukemia
SW-620 colon = test system: SW-620 colon
TK-10 renal = test system: TK-10 renal
U251 CNS = test system: U251 CNS
UACC-257 melanoma = test system: UACC-257 melanoma
UACC-62 melanoma = test system: UACC-62 melanoma
UO-31 renal = test system: UO-31 renal
XF 498 CNS = test system: XF 498 CNS
M19-MEL melanoma = test system: M19-MEL melanoma
MCF7 breast = test system: MCF7 breast
NCI/ADR-RES ovarian = test system: NCI/ADR-RES ovarian
P388 leukemia = test system: P388 leukemia
P388/ADR leukemia = test system: P388/ADR leukemia
SN12K1 renal = test system: SN12K1 renal

## CCCC1C[C@H]2CCCCN2[C@H]2CCCN12 (some centres not stated)
786-0 renal
  TGI: > 100 µM
A498 renal
  TGI: > 100 µM
A549 NSCLC
  TGI: > 100 µM
ACHN renal
  TGI: > 100 µM
CAKI-1 renal
  TGI: > 100 µM
CCRF-CEM leukemia
  TGI: > 68.6 µM
COLO 205 colon
  TGI: > 83.4 µM
DLD-1 colon
  TGI: > 83.6 µM
DMS 114 small cell lung
  TGI: > 86.9 µM
DMS 273 small cell lung
  TGI: > 100 µM
EKVX NSCLC
  TGI: > 100 µM
HCC-2998 colon
  TGI: > 100 µM
HCT-116 colon
  TGI: > 66.2 µM
HCT-15 colon
  TGI: > 75.5 µM
HL-60(TB) leukemia
  TGI: > 64 µM
HOP-18 NSCLC
  TGI: > 100 µM
HOP-62 NSCLC
  TGI: > 100 µM
HOP-92 NSCLC
  TGI: > 100 µM
HT29 colon
  TGI: > 100 µM
IGROV1 ovarian
  TGI: > 100 µM
K-562 leukemia
  TGI: > 88.4 µM
KM12 colon
  TGI: > 100 µM
KM20L2 colon
  TGI: > 100 µM
LOX IMVI melanoma
  TGI: > 55 µM
LXFL 529 NSCLC
  TGI: > 100 µM
M14 melanoma
  TGI: > 100 µM
MALME-3M melanoma
  TGI: > 100 µM
MOLT-4 leukemia
  TGI: > 100 µM
NCI-H226 lung
  TGI: > 100 µM
NCI-H23 lung
  TGI: > 100 µM
NCI-H460 lung
  TGI: > 100 µM
NCI-H522 lung
  TGI: > 100 µM
OVCAR-3 ovarian
  TGI: > 100 µM
OVCAR-4 ovarian
  TGI: > 100 µM
OVCAR-5 ovarian
  TGI: > 100 µM
OVCAR-8 ovarian
  TGI: > 100 µM
RPMI-8226 leukemia
  TGI: > 63.9 µM
RXF 393 renal
  TGI: > 90.1 µM
RXF-631 renal
  TGI: > 100 µM
SF-268 CNS
  TGI: > 100 µM
SF-295 CNS
  TGI: > 100 µM
SF-539 CNS
  TGI: > 100 µM
SK-MEL-2 melanoma
  TGI: > 100 µM
SK-MEL-28 melanoma
  TGI: > 100 µM
SK-MEL-5 melanoma
  TGI: > 100 µM
SK-OV-3 ovarian
  TGI: > 100 µM
SN12C renal
  TGI: > 100 µM
SNB-19 CNS
  TGI: > 100 µM
SNB-75 CNS
  TGI: > 100 µM
SNB-78 CNS
  TGI: > 100 µM
SR leukemia
  TGI: > 64 µM
SW-620 colon
  TGI: > 58.4 µM
TK-10 renal
  TGI: > 100 µM
U251 CNS
  TGI: > 68 µM
UACC-257 melanoma
  TGI: > 100 µM
UACC-62 melanoma
  TGI: > 100 µM
UO-31 renal
  TGI: > 100 µM
XF 498 CNS
  TGI: > 100 µM

## N#C/C(=C\c1ccc(O)cc1)C(N)=O
786-0 renal
  TGI: > 100 µM
A498 renal
  TGI: > 100 µM
A549 NSCLC
  TGI: > 100 µM
ACHN renal
  TGI: > 100 µM
CAKI-1 renal
  TGI: > 100 µM
CCRF-CEM leukemia
  TGI: > 100 µM
COLO 205 colon
  TGI: > 100 µM
DLD-1 colon
  TGI: > 100 µM
DMS 114 small cell lung
  TGI: > 100 µM
DMS 273 small cell lung
  TGI: > 100 µM
EKVX NSCLC
  TGI: 97.8 µM and > 100 µM
HCC-2998 colon
  TGI: > 100 µM
HCT-116 colon
  TGI: > 100 µM
HCT-15 colon
  TGI: > 100 µM
HL-60(TB) leukemia
  TGI: > 100 µM
HOP-62 NSCLC
  TGI: > 100 µM
HOP-92 NSCLC
  TGI: > 100 µM
HT29 colon
  TGI: > 100 µM
IGROV1 ovarian
  TGI: > 100 µM
K-562 leukemia
  TGI: > 100 µM
KM12 colon
  TGI: > 100 µM
KM20L2 colon
  TGI: > 100 µM
LOX IMVI melanoma
  TGI: > 100 µM
LXFL 529 NSCLC
  TGI: > 100 µM
M14 melanoma
  TGI: > 100 µM
M19-MEL melanoma
  TGI: > 100 µM
MALME-3M melanoma
  TGI: > 100 µM
MCF7 breast
  TGI: > 100 µM
MOLT-4 leukemia
  TGI: > 100 µM
NCI-H226 lung
  TGI: > 100 µM
NCI-H23 lung
  TGI: > 100 µM
NCI-H460 lung
  TGI: > 100 µM
NCI-H522 lung
  GI50: 97.5 µM and 44 µM
  TGI: > 100 µM
NCI/ADR-RES ovarian
  TGI: > 100 µM
OVCAR-3 ovarian
  TGI: > 100 µM
OVCAR-4 ovarian
  TGI: > 100 µM
OVCAR-5 ovarian
  TGI: > 100 µM
OVCAR-8 ovarian
  TGI: > 100 µM
P388 leukemia
  TGI: > 100 µM
P388/ADR leukemia
  TGI: > 100 µM
RPMI-8226 leukemia
  TGI: > 100 µM
RXF 393 renal
  TGI: > 100 µM
RXF-631 renal
  TGI: > 100 µM
SF-268 CNS
  TGI: > 100 µM
SF-295 CNS
  TGI: > 100 µM
SF-539 CNS
  TGI: > 100 µM
SK-MEL-2 melanoma
  TGI: > 100 µM
SK-MEL-28 melanoma
  TGI: > 100 µM
SK-MEL-5 melanoma
  TGI: > 100 µM
SK-OV-3 ovarian
  TGI: > 100 µM
SN12C renal
  TGI: > 100 µM
SN12K1 renal
  TGI: > 100 µM
SNB-19 CNS
  TGI: > 100 µM
SNB-75 CNS
  GI50: > 49.9 µM and 12.7 µM
  TGI: > 94.3 µM and 54.7 µM
SNB-78 CNS
  TGI: > 100 µM
SW-620 colon
  TGI: > 100 µM
TK-10 renal
  TGI: > 100 µM
U251 CNS
  TGI: > 100 µM
UACC-257 melanoma
  TGI: > 100 µM
UACC-62 melanoma
  TGI: > 100 µM
UO-31 renal
  TGI: > 100 µM
XF 498 CNS
  TGI: > 100 µM
